Reference: article PMC6508984 (Journal of medicinal chemistry, 2019)

Columns and labels:
GluA2i(Q) = GluA2i(Q) (Rattus norvegicus, UniProt P19491); experiment: Ca2+/Fluo-4 assay, GluA2; format: cell-based; settings: for GluA2i(Q) SAR@: concentration giving significant agonist response >5% of the maximal response induced by (S)-Glu: HEK293, complete concentration-response curve could not be obtained
GluA2(R)o = GluA2(R)o (Rattus norvegicus, UniProt P19491, Q607R); settings: Hill coefficient of binding curve
Chain of GluA2(R)o (P19491 22-883 Q607R): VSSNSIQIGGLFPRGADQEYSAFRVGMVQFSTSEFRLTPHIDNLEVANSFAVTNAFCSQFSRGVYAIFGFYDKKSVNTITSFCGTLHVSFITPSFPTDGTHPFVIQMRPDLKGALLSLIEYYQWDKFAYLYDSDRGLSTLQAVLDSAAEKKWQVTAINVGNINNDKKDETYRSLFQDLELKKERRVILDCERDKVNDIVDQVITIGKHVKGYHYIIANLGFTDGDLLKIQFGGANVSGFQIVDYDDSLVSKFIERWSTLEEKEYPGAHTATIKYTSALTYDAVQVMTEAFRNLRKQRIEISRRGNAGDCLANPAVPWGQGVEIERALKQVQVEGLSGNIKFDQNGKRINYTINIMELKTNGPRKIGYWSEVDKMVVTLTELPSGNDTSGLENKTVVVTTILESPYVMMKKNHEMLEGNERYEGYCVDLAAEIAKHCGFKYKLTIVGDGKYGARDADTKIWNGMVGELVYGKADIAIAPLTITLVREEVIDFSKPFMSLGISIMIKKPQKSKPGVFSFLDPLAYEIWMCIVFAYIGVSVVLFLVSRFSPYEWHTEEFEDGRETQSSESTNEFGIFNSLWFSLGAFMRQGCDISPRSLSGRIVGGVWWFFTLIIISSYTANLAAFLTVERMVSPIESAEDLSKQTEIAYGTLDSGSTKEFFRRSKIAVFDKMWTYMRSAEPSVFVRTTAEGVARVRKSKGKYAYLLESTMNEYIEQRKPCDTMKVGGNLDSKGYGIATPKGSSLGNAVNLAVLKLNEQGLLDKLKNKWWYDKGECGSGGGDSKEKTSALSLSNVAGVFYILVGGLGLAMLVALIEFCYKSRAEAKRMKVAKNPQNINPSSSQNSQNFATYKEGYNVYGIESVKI

GluA1o = GluA1o (Rattus norvegicus, UniProt P19490); settings: Hill coefficient of binding curve
Chain of GluA1o (P19490 19-907): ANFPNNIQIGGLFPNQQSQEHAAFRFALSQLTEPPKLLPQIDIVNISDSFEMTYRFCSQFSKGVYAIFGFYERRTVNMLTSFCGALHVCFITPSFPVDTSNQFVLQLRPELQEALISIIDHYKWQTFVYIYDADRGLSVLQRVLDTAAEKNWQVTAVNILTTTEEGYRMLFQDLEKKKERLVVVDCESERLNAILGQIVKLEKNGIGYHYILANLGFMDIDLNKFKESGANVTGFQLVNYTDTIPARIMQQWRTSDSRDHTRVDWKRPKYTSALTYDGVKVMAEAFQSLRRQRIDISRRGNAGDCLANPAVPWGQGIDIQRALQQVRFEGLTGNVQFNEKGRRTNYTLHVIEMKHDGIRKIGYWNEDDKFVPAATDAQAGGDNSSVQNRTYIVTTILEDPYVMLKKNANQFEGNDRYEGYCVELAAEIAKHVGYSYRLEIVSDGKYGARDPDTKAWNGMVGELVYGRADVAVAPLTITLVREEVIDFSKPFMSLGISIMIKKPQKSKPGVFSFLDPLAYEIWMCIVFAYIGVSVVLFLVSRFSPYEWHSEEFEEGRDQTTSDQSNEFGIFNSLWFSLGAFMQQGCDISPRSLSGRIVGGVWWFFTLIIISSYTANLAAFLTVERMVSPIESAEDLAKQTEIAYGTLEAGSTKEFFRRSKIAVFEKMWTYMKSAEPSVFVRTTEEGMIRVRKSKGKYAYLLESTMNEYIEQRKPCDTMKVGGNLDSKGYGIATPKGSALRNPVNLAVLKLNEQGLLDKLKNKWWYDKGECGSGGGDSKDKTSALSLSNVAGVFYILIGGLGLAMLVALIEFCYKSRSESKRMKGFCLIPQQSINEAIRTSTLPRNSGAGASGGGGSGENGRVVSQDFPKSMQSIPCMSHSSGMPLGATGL

GluA3o = GluA3o (Rattus norvegicus, UniProt P19492); settings: Hill coefficient of binding curve
Chain of GluA3o (P19492 23-888): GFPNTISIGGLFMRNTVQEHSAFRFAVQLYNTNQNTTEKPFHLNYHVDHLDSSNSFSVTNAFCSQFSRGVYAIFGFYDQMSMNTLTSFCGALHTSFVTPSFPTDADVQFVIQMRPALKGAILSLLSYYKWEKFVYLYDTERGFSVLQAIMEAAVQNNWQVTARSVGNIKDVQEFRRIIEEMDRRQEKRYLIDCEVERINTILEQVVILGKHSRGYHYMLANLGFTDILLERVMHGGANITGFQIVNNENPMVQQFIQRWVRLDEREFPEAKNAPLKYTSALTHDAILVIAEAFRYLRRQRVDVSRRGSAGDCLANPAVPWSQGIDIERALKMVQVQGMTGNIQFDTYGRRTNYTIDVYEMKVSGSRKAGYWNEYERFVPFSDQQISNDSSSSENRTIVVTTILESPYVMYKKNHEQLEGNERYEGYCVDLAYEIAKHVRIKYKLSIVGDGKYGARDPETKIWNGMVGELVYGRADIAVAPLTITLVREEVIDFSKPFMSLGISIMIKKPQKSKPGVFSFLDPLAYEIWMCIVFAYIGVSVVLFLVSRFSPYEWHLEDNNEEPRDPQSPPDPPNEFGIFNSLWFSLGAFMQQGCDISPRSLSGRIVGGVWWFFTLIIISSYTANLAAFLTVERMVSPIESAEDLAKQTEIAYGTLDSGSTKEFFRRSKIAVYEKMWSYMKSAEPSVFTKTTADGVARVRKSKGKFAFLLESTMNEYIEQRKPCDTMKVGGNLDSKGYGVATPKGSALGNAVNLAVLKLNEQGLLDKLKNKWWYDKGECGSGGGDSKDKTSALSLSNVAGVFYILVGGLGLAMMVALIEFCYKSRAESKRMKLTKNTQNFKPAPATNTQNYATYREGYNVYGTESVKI

GluA4o = GluA4o (Rattus norvegicus, UniProt P19493); settings: Hill coefficient of binding curve
Chain of GluA4o (P19493 21-902): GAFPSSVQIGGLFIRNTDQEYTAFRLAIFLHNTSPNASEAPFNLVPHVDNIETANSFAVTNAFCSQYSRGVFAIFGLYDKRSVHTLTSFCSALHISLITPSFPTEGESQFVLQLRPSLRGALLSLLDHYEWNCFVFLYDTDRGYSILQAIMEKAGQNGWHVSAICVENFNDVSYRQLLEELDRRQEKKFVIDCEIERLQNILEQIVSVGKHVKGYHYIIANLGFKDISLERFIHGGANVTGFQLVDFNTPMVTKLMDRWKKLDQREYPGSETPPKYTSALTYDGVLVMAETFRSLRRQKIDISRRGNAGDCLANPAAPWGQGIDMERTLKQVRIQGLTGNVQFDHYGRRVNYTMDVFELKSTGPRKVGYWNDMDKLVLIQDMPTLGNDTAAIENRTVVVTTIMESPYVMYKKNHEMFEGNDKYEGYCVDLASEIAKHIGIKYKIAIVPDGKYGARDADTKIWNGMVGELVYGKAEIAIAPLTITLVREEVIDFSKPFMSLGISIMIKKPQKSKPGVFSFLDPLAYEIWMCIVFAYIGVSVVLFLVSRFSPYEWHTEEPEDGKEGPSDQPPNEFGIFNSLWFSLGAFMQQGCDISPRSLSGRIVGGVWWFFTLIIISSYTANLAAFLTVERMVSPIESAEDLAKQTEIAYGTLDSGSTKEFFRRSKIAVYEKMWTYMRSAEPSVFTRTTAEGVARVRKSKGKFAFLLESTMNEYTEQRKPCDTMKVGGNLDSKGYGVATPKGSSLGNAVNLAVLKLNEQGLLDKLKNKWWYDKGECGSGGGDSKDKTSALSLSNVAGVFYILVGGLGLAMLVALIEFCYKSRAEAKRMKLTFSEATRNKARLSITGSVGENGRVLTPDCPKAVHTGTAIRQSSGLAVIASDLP

GluA1i = GluA1i (Rattus norvegicus, UniProt P19490); experiment: Ca2+/Fluo-4 assay, GluA1i-HEK293 cell line; format: cell-based
Chain of GluA1i (P19490 19-907 isoform P19490-2 limits assumed): as the sequence (P19490 19-907) above, with N740G, N750S, L754V, N760S, G772K, G773D, G774S, D775G counted along it

GluA3i = GluA3i (Rattus norvegicus, UniProt P19492); experiment: Ca2+/Fluo-4 assay, GluA3i-HEK293 cell line; format: cell-based
Chain of GluA3i (P19492 23-888 isoform P19492-2 limits assumed): as the sequence (P19492 23-888) above, with N748T, A749P, N758S, L762I, S779A, G780K, G781D, G782S, D783G counted along it

GluA4i = GluA4i (Rattus norvegicus, UniProt P19493); experiment: cell-based; settings: GluA4i EC50, HEK293; 10 mM Ca2+ and 100 μM cyclothiazide; tested up to 1000 μM
Chain of GluA4i (P19493 22-902 isoform P19493-2 limits assumed): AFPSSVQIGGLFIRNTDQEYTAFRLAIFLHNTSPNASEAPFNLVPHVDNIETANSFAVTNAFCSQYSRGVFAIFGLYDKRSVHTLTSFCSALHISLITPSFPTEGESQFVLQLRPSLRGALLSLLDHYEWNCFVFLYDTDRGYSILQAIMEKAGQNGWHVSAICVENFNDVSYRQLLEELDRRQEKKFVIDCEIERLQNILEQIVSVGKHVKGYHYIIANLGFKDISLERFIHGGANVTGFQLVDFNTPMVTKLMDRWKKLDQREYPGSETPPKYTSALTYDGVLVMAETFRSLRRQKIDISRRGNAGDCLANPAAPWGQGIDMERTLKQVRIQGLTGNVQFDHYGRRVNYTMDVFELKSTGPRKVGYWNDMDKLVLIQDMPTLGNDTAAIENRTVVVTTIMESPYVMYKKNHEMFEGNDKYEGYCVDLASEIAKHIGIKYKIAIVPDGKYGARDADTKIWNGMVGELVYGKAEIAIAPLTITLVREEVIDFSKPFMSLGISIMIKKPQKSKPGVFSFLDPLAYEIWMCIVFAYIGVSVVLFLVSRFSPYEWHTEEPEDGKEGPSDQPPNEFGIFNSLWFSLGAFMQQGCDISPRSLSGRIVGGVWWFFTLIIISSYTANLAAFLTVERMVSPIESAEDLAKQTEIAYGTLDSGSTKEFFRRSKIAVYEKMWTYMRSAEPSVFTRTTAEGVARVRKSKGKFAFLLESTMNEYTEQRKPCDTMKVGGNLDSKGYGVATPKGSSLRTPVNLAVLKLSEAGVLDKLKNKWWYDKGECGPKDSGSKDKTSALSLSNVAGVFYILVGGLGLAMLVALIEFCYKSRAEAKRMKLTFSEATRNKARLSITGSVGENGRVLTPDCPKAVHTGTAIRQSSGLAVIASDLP

GluN1/2B = GluN1/2B (Rattus norvegicus, UniProt P35439+Q00960); settings: 100 μM, in absence of both Glu and Gly
GluN1/2C = GluN1/2C (Rattus norvegicus, UniProt P35439+Q00961); settings: 100 μM, in absence of both Glu and Gly
GluN1/2D = GluN1/2D (Rattus norvegicus, UniProt P35439+Q62645); settings: 100 μM, in absence of both Glu and Gly

Chain of GluA2i(Q) (P19491 22-883 isoform P19491-2 limits assumed): as the sequence (P19491 22-883 Q607R) above, with R586Q, N744T, A745P, N754S, L758V, S775A, G776K, G777D, G778S, D779G counted along it

Row | EC50 (GluA1i) | EC50 (GluA2i(Q)) | EC50 (GluA3i) | Compound | GluA2i(Q) SAR@: concentration giving significant agonist response >5% of the maximal response induced by (S)-Glu (GluA2i(Q)) | GluA2(R)o nH (GluA2(R)o) | GluA1o nH (GluA1o) | GluA3o nH (GluA3o) | also measured
1 | – | – | – | Cn1nnc(O)c1CC(N)C(=O)O (racemic) [Compound 6a, (RS) 2-Amino-3-(4-hydroxy-1-methyl-1H-1,2,3-triazol-5-yl)propanoic acid] | SAR@ 300 μM | 0.95 ± 0.09 | 1.02 ± 0.17 | 0.95 ± 0.25 | GluA4o nH (GluA4o): 0.89 ± 0.07
2 | – | – | – | CCCn1nnc(O)c1CC(N)C(=O)O (racemic) [Compound 6c, (RS) 2-Amino-3-(4-hydroxy-1-propyl-1H-1,2,3-triazol-5-yl)propanoic acid] | SAR@ 1000 μM | 1.55 ± 0.65 | 0.81 ± 0.07 | 0.75 ± 0.09 | –
3 | > 1000 µM | > 1000 µM | > 1000 µM | CCn1nc(O)c(CC(N)C(=O)O)n1 (racemic) [Compound 7b, (RS) 2-Amino-3-(2-ethyl-5-hydroxy-2H-1,2,3-triazol-4-yl)propanoic acid] | – | – | – | – | EC50 (GluA4i): > 1000 µM
4 | > 1000 µM | > 1000 µM | > 1000 µM | CCCn1nc(O)c(CC(N)C(=O)O)n1 (racemic) [Compound 7c, (RS) 2-Amino-3-(5-hydroxy-2-propyl-2H-1,2,3-triazol-4-yl)propanoic acid] | – | – | – | – | –
5 | – | – | – | Cn1nc(O)c(C(N)C(=O)O)n1 (racemic) [Compound 8, (RS) 2-Amino-2-(5-hydroxy-2-methyl-2H-1,2,3-triazol-4-yl)acetic acid] | – | – | – | – | Activation by compound alone (GluN1/2B): able to activate; Activation by compound alone (GluN1/2C): able to activate; Activation by compound alone (GluN1/2D): able to activate
